# Columns and labels:
# Klebsiella pneumoniae [1] = test: Antimicrobial activity against carbapenem-resistant Klebsiella pneumoniae ZJ69 deficient in SHV-28, ompK35/36 by CLSI method; assay type: functional
# Klebsiella pneumoniae [2] = test: Antimicrobial activity against carbapenem-resistant Klebsiella pneumoniae GZ83 deficient in SHV-11, CTX-M-14, ompK35/36 by CLSI method; assay type: functional
# Escherichia coli [3] = test: Antimicrobial activity against Escherichia coli PU60T expressing CMY-2 by CLSI method; assay type: functional
# Escherichia coli [4] = test: Antimicrobial activity against carbapenem-resistant Escherichia coli PU101 deficient in TEM-1, CTX-M-14, CMY-2, ompC by CLSI method; assay type: functional
# Escherichia coli [5] = test: Antimicrobial activity against Escherichia coli PU101T expressing CMY-2 by CLSI method; assay type: functional
# Enterobacter cloacae [6] = test: Antimicrobial activity against carbapenem-resistant Enterobacter cloacae GX24 deficient in TEM-1, DHA-1, aac(6')-Ib, ompC by CLSI method; assay type: functional
# Escherichia coli [7] = test: Antimicrobial activity against Escherichia coli HX74T expressing CTX-M-3 by CLSI method; assay type: functional
# Enterobacter cloacae [8] = test: Antimicrobial activity against carbapenem-resistant Enterobacter cloacae GX56 deficient in ompC and expressing low levels of ompF DE by CLSI method; assay type: functional
# Klebsiella aerogenes = test: Antimicrobial activity against carbapenem-resistant Enterobacter aerogenes WH85 deficient in TEM-1, CTX-M-3, ompC/F by CLSI method; assay type: functional
# Klebsiella pneumoniae [9] = test: Antimicrobial activity against carbapenem-resistant Klebsiella pneumoniae GZ84 deficient in SHV-11, aac(6')-Ib-cr, ompK35 by CLSI method; assay type: functional
# Klebsiella pneumoniae [10] = test: Antimicrobial activity against carbapenem-resistant Klebsiella pneumoniae ZJ70 deficient in KPC-2, SHV-11, CTX-M-14, ompK35/36 by CLSI method; assay type: functional
# Klebsiella pneumoniae [11] = test: Antimicrobial activity against carbapenem-resistant Klebsiella pneumoniae ZJ71 deficient in KPC-2, TEM-1, SHV-11, CTX-M-14, ompK35 by CLSI method; assay type: functional
# Klebsiella pneumoniae [12] = test: Antimicrobial activity against Klebsiella pneumoniae ZJ71T expressing KPC-2 by CLSI method; assay type: functional
# Klebsiella pneumoniae [13] = test: Antimicrobial activity against Klebsiella pneumoniae ZJ99 expressing KPC-2, CTX-M-3, qnrS1, ompK35 DE by CLSI method; assay type: functional
# Klebsiella pneumoniae [14] = test: Antimicrobial activity against Klebsiella pneumoniae ZJ99T expressing KPC-2, CTX-M-3, qnrS1 by CLSI method; assay type: functional
# Escherichia coli [15] = test: Antimicrobial activity against Escherichia coli ZJ87T expressing KPC-2 by CLSI method; assay type: functional
# Klebsiella pneumoniae [16] = test: Antimicrobial activity against carbapenem-resistant Klebsiella pneumoniae FZ47 deficient in IMP-8, TEM-1, SHV-11, CTX-M-14, qnrB2, aac(6')-Ib, ompK35/36 by CLSI method; assay type: functional
# Klebsiella pneumoniae [17] = test: Antimicrobial activity against carbapenem-resistant Klebsiella pneumoniae FZ49 deficient in IMP-8, TEM-1, SHV-11, CTX-M-14, qnrB2, aac(6')-Ib, ompK35/36 by CLSI method; assay type: functional
# Klebsiella pneumoniae [18] = test: Antimicrobial activity against Klebsiella pneumoniae WH76 expressing IMP-4, TEM-1, SHV-14, CTX-M-3, qnrS1 by CLSI method; assay type: functional
# Klebsiella pneumoniae [19] = test: Antimicrobial activity against Klebsiella pneumoniae WH77 expressing IMP-4, TEM-1, SHV-14, CTX-M-3, qnrS1 by CLSI method; assay type: functional
# Citrobacter freundii [20] = test: Antimicrobial activity against Citrobacter freundii SZ62 expressing IMP-4, TEM-1, CMY-2, qnrS1, aac(6')-Ib-cr by CLSI method; assay type: functional
# Citrobacter freundii [21] = test: Antimicrobial activity against Citrobacter freundii SZ63 expressing IMP-4, qnrS1by CLSI method; assay type: functional
# Citrobacter freundii [22] = test: Antimicrobial activity against Citrobacter freundii SZ63T expressing IMP-4, qnrS1by CLSI method; assay type: functional
# Enterobacter cloacae [23] = test: Antimicrobial activity against carbapenem-resistant Enterobacter cloacae SZ92 deficient in IMP-4, TEM-1, CTX-M-14, DHA-1, qnrB10/B4-like, aac(6')-Ib, ompC by CLSI method; assay type: functional
# Escherichia coli [24] = test: Antimicrobial activity against Escherichia coli C600 by CLSI method; assay type: functional
# Klebsiella pneumoniae [25] = test: Antimicrobial activity against carbapenem-resistant Klebsiella pneumoniae CY1 deficient in SHV-11, DHA-1, ompK35/36 by CLSI method; assay type: functional
# Klebsiella pneumoniae [26] = test: Antimicrobial activity against Klebsiella pneumoniae CY1T expressing SHV-11, DHA-1 by CLSI method; assay type: functional
# Klebsiella pneumoniae [27] = test: Antimicrobial activity against carbapenem-resistant Klebsiella pneumoniae PU4 deficient in SHV-1, DHA-1, ompK35/36 by CLSI method; assay type: functional
# Klebsiella pneumoniae [28] = test: Antimicrobial activity against carbapenem-resistant Klebsiella pneumoniae PU5 deficient in SHV-12, DHA-1, aac(6')-Ib-cr, ompK35/36 by CLSI method; assay type: functional
# Klebsiella pneumoniae [29] = test: Antimicrobial activity against carbapenem-resistant Klebsiella pneumoniae PU8 deficient in SHV-11, DHA-1, aac(6')-Ib-cr, ompK35/36 by CLSI method; assay type: functional
# Klebsiella pneumoniae [30] = test: Antimicrobial activity against carbapenem-resistant Klebsiella pneumoniae SZ61 deficient in TEM-1, SHV-1a, CMY-2, ompK35/36 by CLSI method; assay type: functional
# Klebsiella pneumoniae [31] = test: Antimicrobial activity against carbapenem-resistant Klebsiella pneumoniae GZ66 deficient in SHV-11, DHA-1, ompK35/36 by CLSI method; assay type: functional
# Klebsiella pneumoniae [32] = test: Antimicrobial activity against carbapenem-resistant Klebsiella pneumoniae CY75 deficient in SHV-11, DHA-1, ompK35/36 by CLSI method; assay type: functional
# Klebsiella pneumoniae [33] = test: Antimicrobial activity against carbapenem-resistant Klebsiella pneumoniae XJ81 deficient in TEM-1, SHV-12, DHA-1, aac(6')-Ib, ompK35/36 by CLSI method; assay type: functional
# Klebsiella pneumoniae [34] = test: Antimicrobial activity against carbapenem-resistant Klebsiella pneumoniae PU105 deficient TEM-1, SHV-12, CTX-M-14, DHA-1, qnrB10/B4-like, aac(6')-Ib-cr, ompK35/36 by CLSI method; assay type: functional
# Escherichia coli [35] = test: Antimicrobial activity against Escherichia coli C600 transconjugant SZ62T expressing IMP-4, qnrS1by CLSI method
# Klebsiella pneumoniae [36] = test: Antimicrobial activity against carbapenem-resistant Klebsiella pneumoniae ZJ68 deficient in CTX-M-15, ompK35/36 by CLSI method
# Escherichia coli [37] = test: Antimicrobial activity against carbapenem-resistant Escherichia coli ZJ86 expressing KPC-2, TEM-1 with ompC loss by CLSI method
# Escherichia coli [38] = test: Antimicrobial activity against Escherichia coli C600 transconjugant WH76T expressing IMP-4, TEM-1, CTX-M-3, qnrS1 by CLSI method
# Escherichia coli [39] = test: Antimicrobial activity against Escherichia coli C600 transconjugant WH77T expressing IMP-4, TEM-1, CTX-M-3, qnrS1 by CLSI method
compound,measurement,setting,value
CO/N=C(\C(=O)N[C@@H]1C(=O)N2C(C(=O)O)=C(COC(C)=O)CS[C@H]12)c1csc(N)n1 [CEFOTAXIME],MIC,Klebsiella pneumoniae [1],64 µg/mL
same,MIC,Klebsiella pneumoniae [2],> 256 µg/mL
same,MIC,Escherichia coli [3],16 µg/mL
same,MIC,Escherichia coli [4],> 256 µg/mL
same,MIC,Escherichia coli [5],128 µg/mL
same,MIC,Enterobacter cloacae [6],256 µg/mL
same,MIC,Escherichia coli [7],> 256 µg/mL
same,MIC,Enterobacter cloacae [8],> 256 µg/mL
same,MIC,Klebsiella aerogenes,> 256 µg/mL
same,MIC,Klebsiella pneumoniae [9],256 µg/mL
same,MIC,Klebsiella pneumoniae [10],> 256 µg/mL
same,MIC,Klebsiella pneumoniae [11],256 µg/mL
same,MIC,Klebsiella pneumoniae [12],16 µg/mL
same,MIC,Klebsiella pneumoniae [13],128 µg/mL
same,MIC,Klebsiella pneumoniae [14],256 µg/mL
same,MIC,Escherichia coli [15],32 µg/mL
same,MIC,Klebsiella pneumoniae [16],256 µg/mL
same,MIC,Klebsiella pneumoniae [17],> 256 µg/mL
same,MIC,Klebsiella pneumoniae [18],128 µg/mL
same,MIC,Klebsiella pneumoniae [19],256 µg/mL
same,MIC,Citrobacter freundii [20],256 µg/mL
same,MIC,Citrobacter freundii [21],> 256 µg/mL
same,MIC,Citrobacter freundii [22],256 µg/mL
same,MIC,Enterobacter cloacae [23],> 256 µg/mL
same,MIC,Escherichia coli [24],0.13 µg/mL
same,MIC,Klebsiella pneumoniae [25],128 µg/mL
same,MIC,Klebsiella pneumoniae [26],4 µg/mL
same,MIC,Klebsiella pneumoniae [27],16 µg/mL
same,MIC,Klebsiella pneumoniae [28],> 256 µg/mL
same,MIC,Klebsiella pneumoniae [29],128 µg/mL
same,MIC,Klebsiella pneumoniae [30],128 µg/mL
same,MIC,Klebsiella pneumoniae [31],128 µg/mL
same,MIC,Klebsiella pneumoniae [32],> 256 µg/mL
same,MIC,Klebsiella pneumoniae [33],> 256 µg/mL
same,MIC,Klebsiella pneumoniae [34],> 256 µg/mL
same,MIC,Escherichia coli [35],128 µg/mL
same,MIC,Klebsiella pneumoniae [36],> 256 µg/mL
same,MIC,Escherichia coli [37],64 µg/mL
same,MIC,Escherichia coli [38],256 µg/mL
same,MIC,Escherichia coli [39],256 µg/mL
